Experimental data published in patent EP3478687B1 (Daewoong Pharmaceutical Co., Ltd., priority 2016, dated 2018).

Legend:
[1] = target: T1, Recombinant purified human BTK (Homo sapiens, UniProt Q06187); experiment: BTK kinase inhibitory activity, ADP-Glo kinase assay (Promega V9071); assay type: biochemical; conditions: ATP 10 uM, 8 ng BTK per reaction, 1 hour 30 °C, chemiluminescence
T1 construct: purchased Promega V9071
In short: (§1)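 Recombinant human kinases in Tris pH 7.5 buffer with MgCl2, BSA and DTT (MnCl2 added for BTK), 4 ng JAK3 or 8 ng BTK per reaction. Poly(Glu4,Tyr1) 0.2 µg/µL with 5 µM (JAK3) or 10 µM (BTK) ATP, 1% DMSO, 1 h at 30 °C. ADP-Glo luminescence used to derive IC50.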

[2] = target: T2, Recombinant purified human JAK3 (Homo sapiens, UniProt P52333); experiment: JAK3 kinase inhibitory activity, ADP-Glo kinase assay (Promega V9441); assay type: biochemical; conditions: for IC50: ATP 5 uM, 4 ng JAK3 per reaction, 1 hour 30 °C, chemiluminescence
T2 construct: purchased Promega V9441
T2 sequence (P52333 1-1124): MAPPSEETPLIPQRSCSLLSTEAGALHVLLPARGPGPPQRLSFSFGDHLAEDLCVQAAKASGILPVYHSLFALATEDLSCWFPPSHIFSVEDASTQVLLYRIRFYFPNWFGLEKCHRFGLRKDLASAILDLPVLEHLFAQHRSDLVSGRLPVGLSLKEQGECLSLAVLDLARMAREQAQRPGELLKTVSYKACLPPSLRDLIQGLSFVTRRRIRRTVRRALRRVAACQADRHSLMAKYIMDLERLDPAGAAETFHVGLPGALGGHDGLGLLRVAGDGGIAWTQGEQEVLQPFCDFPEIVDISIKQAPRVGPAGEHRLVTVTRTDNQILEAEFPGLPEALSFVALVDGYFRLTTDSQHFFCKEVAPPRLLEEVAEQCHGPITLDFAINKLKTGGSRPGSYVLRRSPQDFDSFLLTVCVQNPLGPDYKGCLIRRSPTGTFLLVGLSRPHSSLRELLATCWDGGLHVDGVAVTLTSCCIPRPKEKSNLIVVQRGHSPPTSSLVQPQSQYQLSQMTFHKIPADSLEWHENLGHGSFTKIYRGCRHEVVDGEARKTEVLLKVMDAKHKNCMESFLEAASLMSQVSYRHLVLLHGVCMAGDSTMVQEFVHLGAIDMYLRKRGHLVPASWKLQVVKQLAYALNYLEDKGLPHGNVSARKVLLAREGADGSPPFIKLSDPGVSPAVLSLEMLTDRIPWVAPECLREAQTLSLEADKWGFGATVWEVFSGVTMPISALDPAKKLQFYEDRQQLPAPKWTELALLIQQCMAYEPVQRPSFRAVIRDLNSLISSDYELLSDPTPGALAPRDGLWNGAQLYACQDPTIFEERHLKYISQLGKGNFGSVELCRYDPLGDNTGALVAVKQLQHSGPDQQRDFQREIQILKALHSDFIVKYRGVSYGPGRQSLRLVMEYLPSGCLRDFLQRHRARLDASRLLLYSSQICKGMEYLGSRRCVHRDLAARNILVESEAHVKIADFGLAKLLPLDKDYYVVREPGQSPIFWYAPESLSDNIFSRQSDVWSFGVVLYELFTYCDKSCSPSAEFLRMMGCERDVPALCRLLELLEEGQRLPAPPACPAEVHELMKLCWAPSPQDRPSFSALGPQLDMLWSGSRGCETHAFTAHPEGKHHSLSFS
In short: as §1

T1 sequence (Q06187 whole entry): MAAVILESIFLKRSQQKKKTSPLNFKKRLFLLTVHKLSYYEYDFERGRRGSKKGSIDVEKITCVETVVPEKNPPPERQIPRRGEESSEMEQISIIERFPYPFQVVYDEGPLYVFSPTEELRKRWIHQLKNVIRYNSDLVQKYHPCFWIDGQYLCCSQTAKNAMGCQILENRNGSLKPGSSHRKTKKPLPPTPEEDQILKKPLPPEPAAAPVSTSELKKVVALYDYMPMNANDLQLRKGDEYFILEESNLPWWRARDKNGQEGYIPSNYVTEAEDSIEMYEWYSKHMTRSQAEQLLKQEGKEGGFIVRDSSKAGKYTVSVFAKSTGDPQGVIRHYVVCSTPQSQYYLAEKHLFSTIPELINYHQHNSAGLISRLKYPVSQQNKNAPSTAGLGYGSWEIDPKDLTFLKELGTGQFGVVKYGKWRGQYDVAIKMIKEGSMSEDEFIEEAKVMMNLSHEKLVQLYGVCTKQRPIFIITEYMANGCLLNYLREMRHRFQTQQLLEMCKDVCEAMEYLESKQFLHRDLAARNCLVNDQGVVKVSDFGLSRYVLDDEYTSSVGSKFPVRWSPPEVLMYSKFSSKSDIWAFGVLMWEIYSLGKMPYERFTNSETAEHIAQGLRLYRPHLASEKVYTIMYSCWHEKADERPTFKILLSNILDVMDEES

IC50 [1]	IC50 [2]	inhibition at 0.1 µM ([2]; @100nM compound, printed in the JAK3 IC50 column)	Compound
1.2 nM	1.3 nM		C=CC(=O)N1CCC[C@@H](Nc2nc(Nc3cnn(CC(C)C)c3)nc3[nH]nc(Cl)c23)C1 [Example 55, (R)-1-(3-(3-chloro-6-(1-isobutyl-1H-pyrazol-4-ylamino)-1H-pyrazolo [3,4-d]pyrimidin-4-ylamino)piperidin-1-yl)prop-2-en-1-one]
0.726 nM	3 nM		C=CC(=O)N1CCC[C@@H](Nc2nc(Nc3cnn(C(C)(C)C)c3)nc3[nH]nc(SC)c23)C1 [Example 192, (R)-1-(3-((6-((1-(tert-butyl)-1H-pyrazol-4-yl)amino)-3-(methylthio)-1H-pyrazolo [3,4-d]pyrimidin-4-yl)amino)piperidin-1-yl)prop-2-en-1-one]
1.6 nM	18 nM		C=CC(=O)N1CCC[C@@H](Nc2nc(Nc3cnn(CC(C)C)c3)nc3[nH]nc(C)c23)C1 [Example 186, (R)-1-(3-((6-((1-isobutyl-1H-pyrazol-4-yl)amino)-3-methyl-1H-pyrazolo [3,4-d]pyrimidin-4-yl)amino)piperidin-1-yl)prop-2-en-1-one]
1.1 nM	6 nM		C=CC(=O)N1CC[C@@H](F)[C@@H](Nc2nc(Nc3cnn(CC)c3)nc3[nH]ncc23)C1 [Example 77, 1-((3S,4R)-3-((6-((1-ethyl-1H-pyrazol-4-yl)amino)-1H-pyrazolo [3,4-d]pyrimidin-4-yl)amino)-4-fluoropiperidin-1-yl)prop-2-en-1-one]
3.4 nM	1.2 nM		C=CC(=O)N1CCC[C@@H](Nc2nc(Nc3cc(C)ns3)nc3[nH]cc(F)c23)C1 [Example 83, (R)-1-(3-((5-2-((3-methylisothiazol-5-yl)amino)-7H-pyrrolo[2,3-d]pyrimidin-4-yl)amino)piperidin-1-yl)prop-2-en-1-one]
4.5 nM	27.1 nM		C=CC(=O)N1CC[C@@H](C)[C@@H](N(C)c2nc(Nc3cnn(CC)c3)nc3[nH]nc(Cl)c23)C1 [Example 159]
3.5 nM	8.4 nM		C=CC(=O)N1CC[C@@H](C)[C@@H](Nc2nc(Nc3cnn(CC(C)C)c3)nc3[nH]nc(Cl)c23)C1 [Example 124, 1-((3R,4R)-3-((3-chloro-6-((1-isobutyl-1H-pyrazol-4-yl)amino)-1H-pyrazolo[3,4-d]pyrimidin-4-yl)amino)-4-methylpiperidin-1-yl)prop-2-en-1-one]
5.8 nM	7.9 nM		C=CC(=O)N1CC[C@@H](C)[C@@H](Nc2nc(Nc3cnn(CCN4CCOCC4)c3)nc3[nH]nc(Cl)c23)C1 [Example 123, 1-((3R,4R)-3-((3-chloro-6-((1-(2-morpholinoethyl)-1H-pyrazol-4-yl)amino)-1H-pyrazolo[3,4-d]pyrimidin-4-yl)amino)-4-methylpiperidin-1-yl)prop-2-en-1-one]
1.1 nM	0.1 nM		C=CC(=O)N1CCC[C@@H](Nc2nc(Nc3cc(C)ns3)nc3[nH]cc(Cl)c23)C1 [Example 136, (R)-1-(3-((5-chloro-2-((3-methylisothiazol-5-yl)amino)-7H-pyrrolo[2,3-d]pyrimidin-4-yl)amino)piperidin-1-yl)prop-2-en-1-one]
0.8 nM	0.2 nM		C=CC(=O)N1CCC[C@@H](Nc2nc(Nc3cnn(CC#N)c3)nc3[nH]nc(Cl)c23)C1 [Example 52, (R)-2-(4-(4-(1-acryloylpiperidin-3-ylamino)-3-chloro-1H-pyrazolo[3,4-d]pyrimidin-6-ylamino)-1H-pyrazol-1-yl)acetonitrile]
1.8 nM	1.4 nM		C=CC(=O)N1CCC[C@@H](Nc2nc(Nc3cnoc3)nc3[nH]nc(Cl)c23)C1 [Example 59, (R)-1-(3-(3-chloro-6-(isoxazol-4-ylamino)-1H-pyrazolo[3,4-d]pyrimidin-4-ylamino)piperidin-1-yl)prop-2-en-1-one]
1.6 nM	16 nM		C=CC(=O)N1CC[C@@H](C)[C@@H](Nc2nc(Nc3cnn(CC(F)F)c3)nc3[nH]nc(SC)c23)C1 [Example 133, 1-((3R,4R)-3-((6-((1-(2,2-difluoroethyl)-1H-pyrazol-4-yl)amino)-3-(methylthio)-1H-pyrazolo [3,4-d]pyrimidin-4-yl)amino)-4-methylpiperidin-1-yl)prop-2-en-1-one]
8.6 nM	0.3 nM		C=CC(=O)N1CCC[C@@H](Nc2nc(Nc3cnn(C)c3)nc3[nH]cc(Cl)c23)C1 [Example 69, (R)-1-(3-((5-chloro-2-((1-methyl-1H-pyrazol-4-yl)amino)-7H-pyrrolo[2,3-d]pyrimidin-4-yl)amino)piperidin-1-yl)prop-2-en-1-one]
1.5 nM	1.4 nM		C=CC(=O)N1CCC[C@@H](Nc2nc(Nc3cnn(CC(F)(F)F)c3)nc3[nH]ncc23)C1 [Example 144, (R)-1-(3-((6-((1-(2,2,2-trifluoroethyl)-1H-pyrazol-4-yl)amino)-1H-pyrazolo[3,4-d]pyrimidin-4-yl)amino)piperidin-1-yl)prop-2-en-1-one]
14 nM	5 nM		C=CC(=O)N1CCC[C@@H](Nc2nc(Nc3ccc(OCCN(CC)CC)cc3)nc3[nH]ccc23)C1 [Example 7, (R)-1-(3-(2-(4-(2-(diethylamino)ethoxy)phenylamino)-7H-pyrrolo[2,3-d]pyrimidin-4-ylamino)piperidin-1-yl)prop-2-en-1-one]
7.2 nM	0.3 nM		C=CC(=O)N1CCC[C@@H](Nc2nc(Nc3cnn(CC(F)F)c3)nc3[nH]ccc23)C1 [Example 15, (R)-1-(3-(2-(1-(2,2-difluoroethyl)-1H-pyrazol-4-ylamino)-7H-pyrrolo[2,3-d]pyrimidin-4-ylamino)piperidin-1-yl)prop-2-en-1-one]
1.7 nM	5.7 nM		C=CC(=O)N1CCC[C@@H](Nc2nc(Nc3cnn(C4CC4)c3)nc3[nH]ncc23)C1 [Example 67, (R)-1-(3-((6-((1-cyclopropyl-1H-pyrazol-4-yl)amino)-1H-pyrazolo [3,4-d]pyrimidin-4-yl)amino)piperidin-1-yl)prop-2-en-1-one]
1.8 nM	0.5 nM		C=CC(=O)N1CCC[C@@H](Nc2nc(Nc3cnn(Cc4cccc(OC)c4)c3)nc3[nH]nc(Cl)c23)C1 [Example 58, (R)-1-(3-(3-chloro-6-(1-(3-methoaybenzyl)-1H-pyrazol-4-ylamino)-1H-pyrazolo[3,4-d]pyrimidin-4-ylamino)piperidin-1-yl)prop-2-en-1-one]
2 nM	1.7 nM		C=CC(=O)N1CCC[C@@H](Sc2nc(Nc3cnn(CCC)c3)nc3[nH]nc(Cl)c23)C1 [Example 115, (R)-1-(3-((3-chloro-6-((1-propyl-1H-pyrazol-4-yl)amino)-1H-pyrazolo[3,4-d]pyrimidin-4-yl)thio)piperidin-1-yl)prop-2-en-1-one]
2.1 nM	3.4 nM		C=CC(=O)N1CCC[C@@H](Nc2nc(Nc3cnn(C(F)F)c3)nc3[nH]ncc23)C1 [Example 34, (R)-1-(3-(6-(1-(difluoromethyl)-1H-pyrazol-4-ylamino)-1H-pyrazolo [3,4-d]pyrimidin-4-ylamino)piperidin-1-yl)prop-2-en-1-one]
4.3 nM	18 nM		CCn1cc(Nc2nc(N(C)[C@@H]3CCCN(C(=O)/C(C#N)=C/C(C)C)C3)c3c(Cl)n[nH]c3n2)cn1 [Example 168]
6 nM		52.6%	C=CC(=O)N1CCC[C@@H](Nc2nc(Nc3ccc(N4CCN(C)CC4)cc3)nc3[nH]ncc23)C1 [Example 30, (R)-1-(3-(6-(4-(4-methylpiperazin-1-yl)phenylamino)-1H-pyrazolo [3,4-d]pyrimidin-4-ylamino)piperidin-1-yl)prop-2-en-1-one]
1.7 nM	0.2 nM		C=CC(=O)N1CCC[C@@H](Nc2nc(Nc3cnn(CC(=O)NC)c3)nc3[nH]cc(Cl)c23)C1 [Example 60, (R)-2-(4-((4-((1-acryloylpiperidin-3-yl)amino)-5-chloro-7H-pyrrolo[2,3-d]pyrimidin-2-yl)amino)-lH-pyrazol-1-yl)-N-methylacetamide]
